From article PMC4532424, “The Novel Cyclophilin Inhibitor CPI-431-32 Concurrently Blocks HCV and HIV-1 Infections via a Similar Mechanism of Action” (PLoS ONE, 2015)
Like-named read-outs stand apart in the source and are kept apart here.

How the values were obtained:
[1] = system: HCV JFH-1; experiment: HCV mono-infection of Huh7.5.1 cells, core ELISA; assay type: cell-based; details: Fig 1B
[2] = system: HCV JFH-1; experiment: HIV-1/HCV co-culture co-infection, HCV core ELISA; assay type: cell-based
Method: (§1) CD4+ T-lymphocytes and Huh7.5.1 cells uninfected or infected for 3 h as described above were mixed in a single flask and HIV-1 and HCV replication monitored over a period of 3 weeks as described above.
(§2) HIV-1 target cells—CD4+ T-lymphocytes—and HCV target cells—hepatoma cells—were placed in a single chamber (flask), exposed to both HIV-1 and HCV, and viral replication monitored over time by p24 capsid and core ELISAs, respectively.
(§3) CD4+ T-lymphocytes (A) and Huh7.5.1 cells (B) (0.5 x 10^6 cells) (triplicates) were exposed to HIV-1 JR-CSF and HCV JFH-1. Drugs (2 μM) were added 3 h pre-viral exposure (top panels) or 3 days post-viral exposure (bottom panels). Viral replications were monitored by HIV-1 p24 and HCV core ELISAs. C. CD4+ T-lymphocytes (0.5 x 10^6 cells) (triplicates) were exposed to HIV-1 JR-CSF. Drugs were initially added 3 days post-viral exposure (2 μM) and then daily (0.5 μM). Viral replications were monitored by HIV-1 p24 and HCV core ELISAs. […] D. Model for the HIV-1/HCV co-culture system.

[3] = system: HIV-1 JR-CSF; experiment: HIV-1/HCV co-culture co-infection, HIV-1 p24 ELISA; assay type: cell-based
Method: as §1, §2, §3

[4] = system: HIV-1 JR-CSF; experiment: HIV-1 mono-infection of CD4+ T-lymphocytes, p24 ELISA; assay type: cell-based; details: Fig 1A
From the text: Hemoglobin determinations at every donation protect the donor from phlebotomy-induced anemia. The donor pool also provides investigators with a mix of gender and minority subjects, and recruitment is ongoing for underrepresented minorities. At the present time, the NBDS has 320 active normal blood donors enrolled. Use of the Normal Blood Donor Service is considered “human subjects” research and each investigator who wants to use the service must submit a protocol to the IRB for review and approval. Dr. Gallay has current IRB approval for the human blood obtained for research described in this manuscript. Protocol No: IRB-15-6552. Full name of the IRB is "Scripps IRB". […] Consent from blood donors was obtained verbally. The authors have no access to identifying donor information for these samples.

[5] = system: human T cells; details: cited from earlier work
[6] = drug treatments begun 3 h before virus addition
[7] = single dose added 3 days post-infection

SMILES | Effect on HCV replication (in words) [1] | Effect on HCV replication (in words) [2, 6] | Effect on HCV replication (in words) [2, 7] | Effect on HIV-1 replication (in words) [3, 6] | Effect on HIV-1 replication (in words) [4] | Cellular toxicity (in words) ([5]; general statement on other CypI, no reference given) | Effect on HIV-1 replication (in words) [3, 7] | Cellular toxicity (in words) [5]
COC(=O)N[C@H](C(=O)N1CCC[C@H]1c1nc(-c2ccc(-c3ccc(-c4c[nH]c([C@@H]5CCCN5C(=O)[C@@H](NC(=O)OC)C(C)C)n4)cc3)cc2)c[nH]1)C(C)C [Daclatasvir, daclatasvir] | fully blocked HCV replication | completely prevented | completely eradicated | did not | had no effect |  |  | 
C/C=C/C[C@@H](C)[C@@H](O)[C@H]1C(=O)N[C@@H](CC)C(=O)N(C)CC(=O)N(C)[C@@H]([C@@H](C)CC)C(=O)N[C@@H](C(C)C)C(=O)N(C)[C@@H](CC(C)C)C(=O)N[C@@H](C)C(=O)N[C@H](C)C(=O)N(C)[C@@H](CC(C)C)C(=O)N(C)[C@@H](CC(C)C)C(=O)N(C)[C@@H](C(C)C)C(=O)N1C [NIM811] |  |  |  |  |  | lack of cellular toxicity |  | 
Cc1c(O)cccc1C(=O)N[C@@H](CSc1ccccc1)[C@H](O)CN1C[C@H]2CCCC[C@H]2C[C@H]1C(=O)NC(C)(C)C [Nelfinavir, nelfinavir] | had no effect | did not |  | totally prevented HIV-1 replication | totally blocked replication |  | completely eradicated | 
C/C=C/C[C@@H](C)[C@@H](O)[C@H]1C(=O)N[C@@H](CC)C(=O)N(C)[C@H](SCCN(C)C)C(=O)N(C)[C@@H](CC(C)(C)O)C(=O)N[C@@H](C(C)C)C(=O)N(C)[C@@H](CC(C)C)C(=O)N[C@@H](C)C(=O)N[C@H](C)C(=O)N(C)[C@@H](CC(C)C)C(=O)N(C)[C@@H](CC(C)C)C(=O)N(C)[C@@H](C(C)C)C(=O)N1C [SCY-635] |  |  |  |  |  |  |  | lack of cellular toxicity
